According to patent publication US20040131619A1, “Thymic atrophy” (DUKE UNIVERSITY, priority 2002, published 2004):

Experiments:
[1] = tested on: CD3+, CD4/CD8 DP thymocytes; experiment: Murine fetal thymic organ culture (FTOC); type: cell-based, mouse
Description: Phenotypic analysis of thymocyte suspensions was performed on a FACSVantage SE (Becton Dickinson) using fluorescein isothiocyanate-CD3, phycoerythrin-CD4, and phycoerythrin cychrome 5-CD8 (Pharmingen) as previously described (Sempowski et al, Journal of Immunology 164:2180 (2000)). Annexin V-FITC/propidium iodide (PI) staining was used to determine thymocyte apoptosis, necrosis and viability (Coulter).
FTOC were established following the methods described by Vacchio et al. (Journal of Experimental Medicine 185:2033 (1997)). Briefly, thymic lobes were removed from 17 day gestation fetal mice and were cultured in 6-well plates on Gelfoam (Pharmacia & Upjohn, Kalamazoo, Mich.) rafts. Cultures (2-4 lobes/well) were treated with murine LIF (R&D Systems) with or without metyrapone and then harvested by disruption against a 70 μm cell strainer (Becton Dickinson) with a 1 cc plunger (Becton Dickinson). Total thymocyte number per lobe was determined by hemacytometer count with trypan dye exclusion.
To directly determine if LIF can induce intrathymic corticosteroid production and thymocyte depletion, 17 day fetal thymic lobes in FTOC were treated with LIF (10 ng/ml) in the presence or absence of metyrapone (FIG. 4). Absolute numbers of CD3^+, CD4/CD8 DP thymocytes were quantitated as a measure of in vitro LIF-induced thymic atrophy after 72 hours. […]

BALB/c mice = experiment: LIF-induced acute thymic atrophy (metyrapone pre-treatment, adrenalectomy); type: in vivo; conditions: metyrapone 30 mg/kg IP 24 hours before LIF for 3 days; P<0.0094
Description: Normal and adrenalectomized female BALB/c mice (6-8 week) were purchased from The Jackson Laboratory (Bar Harbor, Me.). Animals were housed in specific pathogen free conditions in the Duke University Vivarium Barrier (Durham, N.C.). Mouse handling and experimental procedures were conducted in accordance with AALAC and the Duke University IACUC guidelines for animal care and use.
Animals were treated with either E. coli LPS (Sigma, L2880, St. Louis, Mo.), recombinant murine LIF (R&D Systems, Minneapolis, Minn.), goat IgG (Sigma) or anti-mouse LIF polyclonal goat IgG (R&D Systems) and metyrapone (Sigma). Mouse thymus tissue was excised following euthanasia. Half of each thymus was snap frozen in a dry ice/ETOH bath and stored in liquid nitrogen for RNA extraction and the other half was teased into a single-cell suspension as previously described (Sempowski et al, Journal of Immunology 164:2180 (2000)). […]
Normal and bilaterally adrenalectomized BALB/c mice were treated with LIF (3 μg, 3× a day) or saline for 3 days, and the degree of thymic atrophy assessed. […] To evaluate the status of LIF mRNA in the thymus of LIF injected mice, thymus LIF mRNA levels were determined in control and LIF-treated mice. […]

Structure (SMILES): CC(C)(C(=O)c1cccnc1)c1cccnc1 [Metyrapone, metyrapone]
- depletion of DP thymocytes ([1]; FTOC, 72 hours, agent alone (LIF 10 ng/ml; metyrapone alone), P<0.05): 8%
- LIF-induced depletion of DP thymocytes ([1]; metyrapone added to LIF-treated (10 ng/ml) FTOC): prevented
- inhibition of LIF-induced acute thymic atrophy (BALB/c mice): 43%
